# Results: paper PMC8286840, “Identifying SARS-CoV-2 antiviral compounds by screening for small molecule inhibitors of Nsp3 papain-like protease” (Biochemical Journal, 2021)
# Counter-ions that a name gives are not always drawn. Like-named read-outs stand apart in the source and are kept apart here.
# Key:
# [1] = molecular target: T1, SARS-CoV-2 PLpro (nsp3 1564–1878) (Severe acute respiratory syndrome coronavirus 2, UniProt P0DTD1); assay: biochemical; parameters: FRET-quenched peptide (Pro3) cleavage by PLpro, 10 min pre-incubation, slope over 20 min, normalised to no-compound control; settings: high concentration screen, read-out: % of control remaining
# [2] = molecular target: T1, SARS-CoV-2 PLpro (nsp3 1564–1878); assay: biochemical; parameters: FRET-quenched peptide (Pro3) cleavage by PLpro, 10 min pre-incubation, slope over 20 min, normalised to no-compound control; settings: low concentration screen, read-out: % of control remaining
smiles,measurement,setting,value
CN1[C@@H]2CC(=O)C[C@H]1[C@H](O)C2 [6-Hydroxytropinone],remaining activity at 3.75 µM,[1]; Well no.=3639,104%
same,remaining activity at 1.25 µM,[2]; Well no.=3639,99.8%
CC(C)=CCC[C@](C)(O)[C@H]1CC[C@]2(C)[C@@H]1CC[C@@H]1[C@@]3(C)CCC(=O)C(C)(C)[C@@H]3CC[C@]12C [Dipterocarpol],remaining activity at 3.75 µM,[1]; Well no.=3204,106%
same,remaining activity at 1.25 µM,[2]; Well no.=3204,105%
CC(=O)OCC1=C(C(=O)O)N2C(=O)[C@@H](N)[C@H]2SC1 [7-Aminocephalosporanic acid],remaining activity at 3.75 µM,[1]; Well no.=5286,96%
same,remaining activity at 1.25 µM,[2]; Well no.=5286,98.5%
NC(N)=Nc1ccc2[nH]c3c(c2c1)C[C@@]1(O)[C@H]2Cc4ccc(O)c5c4[C@@]1(CCN2CC1CC1)[C@H]3O5 [Guanidinyl-naltrindole di-trifluoroacetate],remaining activity at 3.75 µM,[1]; Well no.=763,99.9%
same,remaining activity at 1.25 µM,[2]; Well no.=763,96%
"CN(C)c1ccccc1CN1CCCN(Cc2ccccc2N(C)C)C1c1ccncc1 [2-[(3-[2-(dimethylamino)benzyl]-2-(4-pyridinyl)tetrahydro-1(2H)-pyrimidinyl)methyl]-N,N-dimethylaniline]",remaining activity at 3.75 µM,[1]; Well no.=5454,100%
same,remaining activity at 1.25 µM,[2]; Well no.=5454,96.1%
OC[C@@H](O)[C@@H](O)[C@@H](O)CO [Ribitol],remaining activity at 3.75 µM,[1]; Well no.=6775,102%
same,remaining activity at 1.25 µM,[2]; Well no.=6775,104%
O=C1CSC(c2cccc(Br)c2)N1c1cc(Cl)ccc1O (stereo not shown) [CK-548],remaining activity at 3.75 µM,[1]; Well no.=6054,96.3%
same,remaining activity at 1.25 µM,[2]; Well no.=6054,97.5%
O=C(OC1CCN(CCCl)CC1)C(c1ccccc1)c1ccccc1 [4-Diphenylacetoxy-N-(2-chloroethyl)piperidine hydrochloride],remaining activity at 3.75 µM,[1]; Well no.=594,92.6%
same,remaining activity at 1.25 µM,[2]; Well no.=594,92.6%
"N#Cc1cccc(-c2c[nH]c3ncnc(N4CCOCC4)c23)c1 [3-(4-morpholino-7H-pyrrolo[2,3-d]pyrimidin-5-yl)benzonitrile]",remaining activity at 3.75 µM,[1]; Well no.=5684,99.8%
same,remaining activity at 1.25 µM,[2]; Well no.=5684,97.4%
CCCCC[C@H](O)/C=C/[C@@H]1[C@H]2C/C(=C/CCCC(=O)O)C[C@H]2C[C@H]1O [Carbacyclin],remaining activity at 3.75 µM,[1]; Well no.=4529,95.8%
same,remaining activity at 1.25 µM,[2]; Well no.=4529,91.4%
Cc1cn(-c2cc(NC(=O)c3ccc(C)c(Nc4nccc(-c5cccnc5)n4)c3)cc(C(F)(F)F)c2)cn1 [Nilotinib],remaining activity at 3.75 µM,[1]; Well no.=2793,107%
same,remaining activity at 1.25 µM,[2]; Well no.=2793,111%
O=S(=O)(O)C1CCNCC1 [Piperidine-4-sulphonic acid],remaining activity at 3.75 µM,[1]; Well no.=1449,94.6%
same,remaining activity at 1.25 µM,[2]; Well no.=1449,99.5%
O=[N+]([O-])c1ccc(CSc2ncnc3c2ncn3[C@@H]2O[C@H](CO)[C@@H](O)[C@H]2O)cc1 [S-(4-Nitrobenzyl)-6-thioinosine],remaining activity at 3.75 µM,[1]; Well no.=949,101%
same,remaining activity at 1.25 µM,[2]; Well no.=949,105%
O=C1C(SCCO)=C(SCCO)C(=O)c2ccccc21 [NSC 95397],remaining activity at 3.75 µM,[1]; Well no.=5678,75.9%
same,remaining activity at 1.25 µM,[2]; Well no.=5678,92%
COc1ccc(CCCOC(Cn2ccnc2)c2ccc(OC)cc2)cc1 (stereo not shown) [SKF 96365],remaining activity at 3.75 µM,[1]; Well no.=1412,100%
same,remaining activity at 1.25 µM,[2]; Well no.=1412,98.9%
CCS(=O)(=O)c1cccc(-c2cc(C(=O)NC3CCN(C)CC3)c(C)c3[nH]c4ncc(C)cc4c23)c1 [TAK-901],remaining activity at 3.75 µM,[1]; Well no.=4691,100%
same,remaining activity at 1.25 µM,[2]; Well no.=4691,96.9%
O=C(O)COc1ccccc1C(Nc1ccccn1)c1cc(Cl)c2cccnc2c1O (stereo not shown) [Mcl1-IN-1],remaining activity at 3.75 µM,[1]; Well no.=6880,96.8%
same,remaining activity at 1.25 µM,[2]; Well no.=6880,99.8%
CC(C)CNCc1ccc(-c2ccccc2S(=O)(=O)N2CCCC2)cc1 [PF-04455242 hydrochloride],remaining activity at 3.75 µM,[1]; Well no.=5775,107%
same,remaining activity at 1.25 µM,[2]; Well no.=5775,106%
O=C(N[C@H]1CCN(C(=O)c2cc(C(F)(F)F)cc(C(F)(F)F)c2)[C@H](Cc2ccc(Cl)cc2)C1)c1ccnc2ccccc12 [NKP608],remaining activity at 3.75 µM,[1]; Well no.=8427,92.6%
same,remaining activity at 1.25 µM,[2]; Well no.=8427,93.4%
"CC(ONC(=O)c1cc(C(F)(F)F)cc(C(F)(F)F)c1)C(=O)Nc1ccc(Cl)cc1 (stereo not shown) [N-[2-(4-chloroanilino)-1-methyl-2-oxoethoxy]-3,5-bis(trifluoromethyl)benzamide]",remaining activity at 3.75 µM,[1]; Well no.=5698,103%
same,remaining activity at 1.25 µM,[2]; Well no.=5698,101%
N=C(N)NCCCCN [Agmatine (sulfate)],remaining activity at 3.75 µM,[1]; Well no.=7803,106%
same,remaining activity at 1.25 µM,[2]; Well no.=7803,104%
O=C(Oc1cccc(F)c1OC(=O)c1cccc(O)c1)c1cccc(O)c1 [WZB117],remaining activity at 3.75 µM,[1]; Well no.=8770,101%
same,remaining activity at 1.25 µM,[2]; Well no.=8770,102%
CN(Cc1ccc(C(C)(C)C)cc1)Cc1cccc2ccccc12 [Butenafine],remaining activity at 3.75 µM,[1]; Well no.=1876,94.3%
same,remaining activity at 1.25 µM,[2]; Well no.=1876,97.2%
CC(C)(C)C(=O)OCOC(=O)[C@@H]1N2C(=O)[C@@H](/N=C/N3CCCCCC3)[C@H]2SC1(C)C [Pivmecillinam],remaining activity at 3.75 µM,[1]; Well no.=5414,98.6%
same,remaining activity at 1.25 µM,[2]; Well no.=5414,93.3%
NS(=O)(=O)NCCNc1nonc1/C(=N/O)Nc1ccc(F)c(Br)c1 [Epacadostat (INCB024360)],remaining activity at 3.75 µM,[1]; Well no.=8722,95.9%
same,remaining activity at 1.25 µM,[2]; Well no.=8722,99.6%
CC(C)(CCCCCCCCCCC(C)(C)CC(=O)O)CC(=O)O [MEDICA 16],remaining activity at 3.75 µM,[1]; Well no.=5805,91.6%
same,remaining activity at 1.25 µM,[2]; Well no.=5805,91.5%
O=C(NCCO)c1cccc(-c2cc(Nc3ccc(OC(F)(F)F)cc3)ncn2)c1 [GNF-5],remaining activity at 3.75 µM,[1]; Well no.=5861,98.1%
same,remaining activity at 1.25 µM,[2]; Well no.=5861,105%
CC(CCc1ccc(O)cc1)NCCc1ccc(O)c(O)c1 (stereo not shown) [Dobutamine hydrochloride],remaining activity at 3.75 µM,[1]; Well no.=587,99.5%
same,remaining activity at 1.25 µM,[2]; Well no.=587,97.5%
CC(C)Cc1ccc(CC(=O)O)cc1 [Ibufenac],remaining activity at 3.75 µM,[1]; Well no.=5479,109%
same,remaining activity at 1.25 µM,[2]; Well no.=5479,105%
C=C1C[C@@H]2[C@H](CC[C@]3(C)C(=O)CC[C@@H]23)[C@@]2(C)C=CC(=O)C=C12 [Exemestane],remaining activity at 3.75 µM,[1]; Well no.=1623,102%
same,remaining activity at 1.25 µM,[2]; Well no.=1623,104%
Nc1ccc(S(=O)(=O)Nc2ncccn2)cc1 [Sulfadiazine],remaining activity at 3.75 µM,[1]; Well no.=2289,102%
same,remaining activity at 3.75 µM,[1]; Well no.=7494,98.3%
same,remaining activity at 1.25 µM,[2]; Well no.=2289,99.4%
same,remaining activity at 1.25 µM,[2]; Well no.=7494,97.4%
O[C@H]1CCN2Cc3ccccc3N=C12 [Vasicine],remaining activity at 3.75 µM,[1]; Well no.=3406,94.4%
same,remaining activity at 1.25 µM,[2]; Well no.=3406,97.8%
C[C@@]1(c2cc(-c3cncnc3)c(F)cc2F)CCSC(N)=N1 [LY2811376],remaining activity at 3.75 µM,[1]; Well no.=4949,103%
same,remaining activity at 1.25 µM,[2]; Well no.=4949,101%
O=C1NC(=O)/C(=C/c2cccc(C(F)(F)F)c2)S1 [SMI-4a],remaining activity at 3.75 µM,[1]; Well no.=4788,101%
same,remaining activity at 1.25 µM,[2]; Well no.=4788,104%
